Experimental data as given in the NIST ThermoML archive (doi:10.1021/je200811n).

Conditions: Hot wire method

C=C(F)C(F)(F)F [2,3,3,3-tetrafluoro-1-propene]
Conditions	thermal conductivity [W/m/K]
243.32 K, 15749 kPa, Liquid	0.0891
243.35 K, 6084 kPa, Liquid	0.08459
243.38 K, 894 kPa, Liquid	0.08224
243.47 K, 15756 kPa, Liquid	0.08884
243.5 K, 10983 kPa, Liquid	0.08672
243.53 K, 6087 kPa, Liquid	0.0843
243.57 K, 898 kPa, Liquid	0.08198
243.7 K, 86 kPa, Gas	0.00931
243.73 K, 78 kPa, Gas	0.00931
243.75 K, 69 kPa, Gas	0.00935
243.84 K, 20954 kPa, Liquid	0.09109
243.85 K, 21009 kPa, Liquid	0.09114
243.87 K, 15753 kPa, Liquid	0.08885
243.9 K, 10980 kPa, Liquid	0.0868
243.94 K, 6082 kPa, Liquid	0.08438
243.98 K, 898 kPa, Liquid	0.08174
244.07 K, 15757 kPa, Liquid	0.08866
244.11 K, 10979 kPa, Liquid	0.08646
244.16 K, 86 kPa, Gas	0.00935
244.16 K, 6088 kPa, Liquid	0.08418
244.2 K, 78 kPa, Gas	0.00935
244.21 K, 900 kPa, Liquid	0.08153
244.22 K, 69 kPa, Gas	0.00937
251.4 K, 100 kPa, Gas	0.0102
251.41 K, 121 kPa, Gas	0.01025
251.42 K, 129 kPa, Gas	0.01024
251.64 K, 100 kPa, Gas	0.01009
251.65 K, 121 kPa, Gas	0.01014
251.66 K, 129 kPa, Gas	0.01016
251.9 K, 121 kPa, Gas	0.00997
251.91 K, 100 kPa, Gas	0.01002
251.91 K, 121 kPa, Gas	0.01007
251.91 K, 130 kPa, Gas	0.01
251.92 K, 129 kPa, Gas	0.01009
251.93 K, 100 kPa, Gas	0.00998
252.23 K, 121 kPa, Gas	0.00999
252.23 K, 130 kPa, Gas	0.00999
252.28 K, 100 kPa, Gas	0.01003
252.6 K, 122 kPa, Gas	0.01002
252.6 K, 130 kPa, Gas	0.01
252.67 K, 100 kPa, Gas	0.01006
253 K, 129 kPa, Gas	0.01005
253.01 K, 121 kPa, Gas	0.01006
253.09 K, 100 kPa, Gas	0.01007
253.43 K, 129 kPa, Gas	0.01006
253.45 K, 121 kPa, Gas	0.01008
253.53 K, 100 kPa, Gas	0.0101
261.38 K, 995 kPa, Liquid	0.07662
261.4 K, 996 kPa, Liquid	0.07661

Conditions	thermal conductivity [W/m/K]
253.15 K, Liquid	0.07836
